The record followed here is US10100016B2, “Condensed ring derivative, and preparation method, intermediate, pharmaceutical composition and use thereof” (SHANGHAI YINGLI PHARMACEUTICAL CO., LTD., priority 2015, dated 2018).

Chain of hURAT1 (Q96S37 whole entry): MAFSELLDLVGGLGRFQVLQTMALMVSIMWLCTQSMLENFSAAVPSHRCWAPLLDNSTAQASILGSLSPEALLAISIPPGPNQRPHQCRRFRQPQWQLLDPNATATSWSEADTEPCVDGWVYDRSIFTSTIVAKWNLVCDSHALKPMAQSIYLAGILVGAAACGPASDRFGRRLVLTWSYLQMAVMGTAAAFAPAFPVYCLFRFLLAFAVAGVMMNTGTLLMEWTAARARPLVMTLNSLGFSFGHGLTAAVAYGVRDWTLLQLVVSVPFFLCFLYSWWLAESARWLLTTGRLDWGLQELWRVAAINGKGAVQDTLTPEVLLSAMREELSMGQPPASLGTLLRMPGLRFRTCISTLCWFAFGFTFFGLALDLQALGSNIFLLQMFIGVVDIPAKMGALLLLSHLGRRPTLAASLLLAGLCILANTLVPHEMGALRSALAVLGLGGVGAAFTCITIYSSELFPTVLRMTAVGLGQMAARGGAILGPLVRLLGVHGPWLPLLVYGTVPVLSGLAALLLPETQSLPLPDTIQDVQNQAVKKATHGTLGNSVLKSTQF

The target of this assay is hURAT1 (Homo sapiens (Human), UniProt Q96S37). The assay is described as follows: 14C-uric acid transport inhibition in transfected HEK293/hURAT1 cells. In kind it is cell-based. The conditions noted are these: 14C-uric acid uptake, 10 mins incubation, read-out: IC50 value against hURAT1. The procedure:
Human embryonic kidney cells (HEK293) was incubated in DMEM tissue culture medium, at 37° C., under 5% CO2 and 95% air atmosphere. […] Transfected HEK293/hURAT1 cells were used to the test for ^14C-uric acid transport activity.
The uric acid [8-14C] […] The incubating solution was removed after 10 mins incubation, followed by adding 100 μL cold washing buffer, after washing with this buffer for 3 times, the buffer was completely removed from the well.
What is called IC50 is the concentration that gives 50% inhibition. Take `CC(CC(=O)O)c1cc2c(-c3ccc(C#N)c4ccccc34)cncc2s1` (racemic) [Compound 42, 3-[4-(4-Cyanonaphthalen-1-yl)thieno[2,3-c]pyridin-2-yl] butyric Acid]: the IC50 is 0.024 µM.

As to `CC(CC(=O)O)c1cc2cncc(-c3ccc(C#N)c4ccccc34)c2s1` (racemic) [Compound 52, 3-[7-(4-Cyanonaphthalen-1-yl)thieno[3,2-c]pyridine-2-yl]-butyric Acid], the IC50 came to 0.037 µM. As to `N#Cc1ccc(-c2cncc3ccc(C(=O)O)cc23)cc1` [Compound 1, 4-(4-cyanophenyl)isoquinoline-6-carboxylic Acid], the IC50 worked out at 2.53 µM.

With `N#Cc1ccc(-c2cncc3ccc(CCC(=O)O)cc23)cc1` [Compound 2, 3-[4-(4-Cyanophenyl)isoquinolin-6-yl]propionic Acid], the IC50 amounted to 0.161 µM. As for `N#Cc1ccc(-c2cncc3ccc(CC(=O)O)cc23)c2ccccc12` [Compound 3, 2-[4-(4-Cyanonaphthalen-1-yl)isoquinolin-6-yl]acetic Acid], the IC50 is 0.327 µM. The figure for `CC(C)(Sc1ccc2cncc(-c3ccc(C#N)cc3)c2c1)C(=O)O` [Compound 4] is 0.015 µM; for `CC(C)(Oc1ccc2cncc(-c3ccc(C#N)cc3)c2c1)C(=O)O` [Compound 6, 2{[4-(4-Cyanophenyl)isoquinolin-6-yl]oxy}-2-methylpropionic Acid] it is 0.214 µM; for `CC(C)(Sc1ccc2cncc(-c3ccc(C#N)cc3F)c2c1)C(=O)O` [Compound 8, 2{[4-(4-Cyano-2-fluorophenyl)isoquinolin-6-yl]thio}-2-methylpropionic Acid] it is 0.057 µM. The figure for `CC(C)(Sc1cc(F)c2cncc(-c3ccc(C#N)c4ccccc34)c2c1)C(=O)O` [Compound 9, 2{[4-(4-Cyanonaphthalen-1-yl)-8-fluoroisoquinolin-6-yl]thio}-2-methylpropionic Acid] is 0.127 µM; for `CC(C)(Sc1ccc2cncc(-c3cccc4c(C#N)cccc34)c2c1)C(=O)O` [Compound 10, 2{[4-(5-Cyanonaphthalen-1-yl)isoquinolin-6-yl]thio}-2-methylpropionic Acid] it is 0.019 µM; for `CC(C)(Sc1ccc2cncc(-c3ccc(C#N)c4c3OCCO4)c2c1)C(=O)O` [Compound 11, 2-{[4-(8-Cyano-2,3-dihydro-1,4-benzodioxan-5-yl)isoquinolin-6-yl]thio}-2-methylpropionic Acid] it is 0.062 µM. `CC(C)(Sc1ccc2cncc(-c3ccc(C#N)c4ccc(F)cc34)c2c1)C(=O)O` [Compound 12, 2-{[4-(4-Cyano-7-fluoronaphthalen-1-yl)isoquinolin-6-yl]thio}-2-methyl propionic Acid]: the IC50 came to 0.071 µM. `CC(CC(=O)O)c1ccc2cncc(-c3ccc(C#N)cc3)c2c1` (centres unmarked) [Compound 13, 3-[4-(4-Cyanophenyl)isoquinolin-6-yl]butyric Acid]: the IC50 is 0.189 µM. Take `N#Cc1ccc(-c2cncc3ccc(/C=C/C(=O)O)cc23)c2ccccc12` [Compound 14, (2E)-3-[4-(4-Cyanonaphthalen-1-yl)isoquinolin-6-yl]acrylic Acid]: the IC50 came out at 0.385 µM.

As to `CC(CC(=O)O)c1ccc2cncc(-c3ccc(C#N)c4ccccc34)c2c1` (centres unmarked) [Compound 15, 3-[4-(4-Cyanonaphthalen-1-yl)isoquinolin-6-yl]butyric Acid], the IC50 stood at 0.024 µM. Take `CC(Cc1ccc2cncc(-c3ccc(C#N)c4ccccc34)c2c1)C(=O)O` (centres unmarked) [Compound 16, 3-[4-(4-Cyanonaphthalen-1-yl)isoquinolin-6-yl]-2-methyl propionic acid]: the IC50 is 0.015 µM. The figure for `CC(C)(Cc1ccc2cncc(-c3ccc(C#N)c4ccccc34)c2c1)C(=O)O` [Compound 17, 3-[4-(4-Cyanonaphthalen-1-yl)isoquinolin-6-yl]-2,2-dimethyl propionic Acid] is 0.012 µM; for `CC(Sc1ccc2cncc(-c3ccc(C#N)c4ccccc34)c2c1)C(=O)O` (centres unmarked) [Compound 21, 2-{[4-(4-Cyanonaphthalen-1-yl)isoquinolin-6-yl]thio}propionic Acid] it is 0.1 µM. The figure for `CC(C)(Sc1ccc2cncc(-c3ccc(C#N)c(Cl)c3)c2c1)C(=O)O` [Compound 22, 2-{[4-(3-Chloro-4-cyanophenyl)isoquinolin-6-yl]thio}-2-methyl propionic Acid] is 0.055 µM.

For `CC(C)(Sc1ccc2cncc(-c3ccc(C#N)cc3Cl)c2c1)C(=O)O` [Compound 23, 2-{[4-(2-Chloro-4-cyanophenyl)isoquinolin-6-yl]thio}-2-methyl propionic Acid], the IC50 amounted to 0.018 µM.

On to `N#Cc1ccc(-c2cncc3ccc(SC4(C(=O)O)CCC4)cc23)c2ccccc12` [Compound 24, 1-{[4-(4-cyanonaphthalen-1-yl)isoquinolin-6-yl]thio}cyclobutane-1-carboxylic Acid], for which the half-maximal inhibitory concentration (IC50) turned out to be 0.018 µM. The figure for `Cc1nc(Cc2c(Cl)cccc2Cl)n2cc(CCC(=O)O)ccc12` [Compound 25, 3-{3-[(2,6-dichlorophenyl)methyl]-1-methylimidazole[1,5-a]pyridine-6-yl}propionic Acid] is 0.289 µM; for `Cc1nn(Cc2c(Cl)cccc2Cl)c2cc(SC(C)(C)C(=O)O)ccc12` [Compound 26, 2-({1-[(2,6-dichlorophenyl)methyl]-3-methyl-1H-indazol-6-yl}thio)-2-methyl propionic Acid] it is 0.119 µM; for `CC(C)(Sc1ccc2nccn2c1-c1ccc(C#N)cc1)C(=O)O` [Compound 27, 2-{[5-(4-Cyanophenyl)imidazo[1,2-a]pyridin-6-yl]thio}-2-methyl propionic Acid] it is 1.73 µM. With `N#Cc1ccc(-c2cncc3cc(C(=O)O)sc23)c2ccccc12` [Compound 29, 7-(4-Cyanonaphthalen-1-yl)thieno[3,2-c]pyridin-2-formic Acid] the figure was 2.86 µM. The figure for `N#Cc1ccc(-c2cncc3cc(CCC(=O)O)sc23)c2ccccc12` [Compound 30, 3-[7-(4-Cyanonaphthalen-1-yl)thieno[3,2-c]pyridin-2-yl]propionic acid] is 0.087 µM. As for `N#Cc1ccc(-c2cncc3cc(CC(=O)O)sc23)c2ccccc12` [Compound 31, 2-[7-(4-Cyanonaphthalen-1-yl)thieno[3,2-c]pyridin-2-yl]acetic Acid], the IC50 is 3.42 µM. For `N#Cc1ccc(-c2cncc3cc(CC(=O)O)sc23)cc1` [Compound 32, 2-[7-(4-Cyanophenyl)thieno[3,2-c]pyridin-2-yl]acetic Acid], the half-inhibitory concentration (IC50) came out at 5.41 µM. The figure for `CC(C)(Cc1cc2cncc(-c3ccc(C#N)cc3)c2s1)C(=O)O` [Compound 33, 3-[7-(4-Cyanophenyl)thieno[3,2-c]pyridin-2-yl]-2,2-dimethylpropionic Acid] is 0.042 µM.

`CC(C)(Cc1cc2cncc(-c3ccc(C#N)c4ccccc34)c2s1)C(=O)O` [Compound 34, 3-[7-(4-Cyanonaphthalen-1-yl)thieno[3,2-c]pyridin-2-yl]-2,2-dimethylpropionic Acid]: the half-inhibitory concentration (IC50) was determined as 0.139 µM. With `CC(C)(Cc1cc2c(-c3ccc(C#N)c4ccccc34)cccc2s1)C(=O)O` [Compound 38, 3-[4-(4-Cyanonaphthalen-1-yl)-1-benzothiophen-2-yl]-2,2-dimethyl propionic Acid] the figure was 0.209 µM; with `CC(C)(Cc1cc2c(Cc3c(Cl)cccc3Cl)cccc2s1)C(=O)O` [Compound 40, 3-{4-[(2,6-Dichlorophenyl)methyl]-1-benzothiophen-2-yl]-2,2-dimethyl propionic Acid], 3.47 µM. Turning to `CC(O)(CC(=O)O)c1cc2c(-c3ccc(C#N)c4ccccc34)cncc2s1` (centres unmarked) [Compound 41, 3-[4-(4-Cyanonaphthalen-1-yl)thieno[2,3-c]pyridin-2-yl]-3-hydroxyl butyric Acid], the concentration for half-maximal inhibition (IC50) worked out at 0.934 µM.

For `CC(C)(Cc1cc2c(-c3ccc(C#N)c4ccccc34)cncc2s1)C(=O)O` [Compound 47, 3-[4-(4-Cyanonaphthalen-1-yl)thieno[2,3-c]pyridin-2-yl]-2,2-dimethyl propionic Acid], the half-inhibitory concentration (IC50) amounted to 0.018 µM. Regarding `CC(C)(C(=O)O)c1ccc2cncc(-c3ccc(C#N)c4ccccc34)c2c1` [Compound 49, 2-[4-(4-Cyanonaphthalen-1-yl)isoquinolin-6-yl]-2-methyl propionic acid], the IC50 was 0.116 µM. The figure for `CC(C)(Sc1ccc2cnnc(-c3ccc(C#N)c4ccccc34)c2c1)C(=O)O` [Compound 50, 2-{[4-(4-Cyanonaphthalen-1-yl)phthalazin-6-yl]thio}-2-methyl propionic Acid] is 0.971 µM; for `CC(C)(Cc1ccc2cncc(-c3ccc(C#N)cc3)c2c1)C(=O)O` [Compound 51, 3-[4-(4-Cyanophenyl)isoquinolin-6-yl]-2,2-dimethyl propionic Acid] it is 0.019 µM; for `CC(C)(Sc1ccncc1-c1ccc(C#N)c2ccccc12)C(=O)O` [Verinurad (RDEA3170), reference compound] it is 0.113 µM.
